Test results as given in BindingDB's records for doi:10.1016/j.bmcl.2003.12.105 (Ucb Pharma, 2004).

Tests used:
[1] = Inhibition of [3H](+)-pentazocine binding to Sigma receptor type 1
[2] = as above; remark: listed apart in the source

SMILES | Ki [1] [nM] | Ki [2] [nM]
COCCN(C)CC[C@@]12CCCC[C@@H]1C=Cc1ccc(OC)cc12 [(2-Methoxy-ethyl)-[2-((4aS,10aR)-6-methoxy-1,3,4,10a-tetrahydro-2H-phenanthren-4a-yl)-ethyl]-methyl-amine; compound with GENERIC INORGANIC NEUTRAL COMPONENT] | 49 | 
COc1ccc2c(c1)[C@]13CCCC[C@@H]1[C@H](C2)N(C)CC3 [DEXTROMETHORPHAN] | 348 | 
COc1ccc2c(c1)[C@]1(CCN(C)C)CCCC[C@@H]1C=C2 [[2-((4aS,10aR)-6-Methoxy-1,3,4,10a-tetrahydro-2H-phenanthren-4a-yl)-ethyl]-dimethyl-amine; compound with GENERIC INORGANIC NEUTRAL COMPONENT] | 245 | 
CNCC[C@@]12CCCC[C@@H]1C=Cc1ccc(OC)cc12 [[2-((4aS,10aR)-6-Methoxy-1,3,4,10a-tetrahydro-2H-phenanthren-4a-yl)-ethyl]-methyl-amine] | 456 | 
CN(CC[C@@]12CCCC[C@@H]1C=Cc1ccc(OCC(=O)OC(C)(C)C)cc12)CC(=O)OC(C)(C)C [{(4bS,8aR)-4b-[2-(tert-Butoxycarbonylmethyl-methyl-amino)-ethyl]-4b,5,6,7,8,8a-hexahydro-phenanthren-3-yloxy}-acetic acid tert-butyl ester] | 14 | 
COc1ccc2c(c1)[C@]1(CC[N+](C)(C)C(=O)OC(C)(C)C)CCCC[C@@H]1C=C2 [N-{2-[(4aS,10aR)-6-methoxy-1,2,3,4,4a,10a-hexahydrophenanthren-4a-yl]ethyl}-1-(tert-butoxy)-N,N-dimethylcarbonyl{2-[(4aS,10aR)-6-methoxy-1,2,3,4,4a,10a-hexahydrophenanthren-4a-yl]ethyl}dimethylazanium] | > 3300 | 
C=CCN(C)CC[C@@]12CCCC[C@@H]1C=Cc1ccc(OC)cc12 [Allyl-[2-((4aS,10aR)-6-methoxy-1,3,4,10a-tetrahydro-2H-phenanthren-4a-yl)-ethyl]-methyl-amine; compound with GENERIC INORGANIC NEUTRAL COMPONENT] | 49 | 
COc1ccc2c(c1)[C@]1(CCN(C)CCO)CCCC[C@@H]1C=C2 [2-{[2-((4aS,10aR)-6-Methoxy-1,3,4,10a-tetrahydro-2H-phenanthren-4a-yl)-ethyl]-methyl-amino}-ethanol] | 161 | 
COc1ccc2c(c1)[C@]1(CCN(C)CC(=O)OC(C)(C)C)CCCC[C@@H]1C=C2 [{[2-((4aS,10aR)-6-Methoxy-1,3,4,10a-tetrahydro-2H-phenanthren-4a-yl)-ethyl]-methyl-amino}-acetic acid tert-butyl ester; compound with GENERIC INORGANIC NEUTRAL COMPONENT] | 37 | 373
COc1ccc2c(c1)[C@]1(CCN(C)CCOCc3ccccc3)CCCC[C@@H]1C=C2 [(2-Benzyloxy-ethyl)-[2-((4aS,10aR)-6-methoxy-1,3,4,10a-tetrahydro-2H-phenanthren-4a-yl)-ethyl]-methyl-amine; compound with GENERIC INORGANIC NEUTRAL COMPONENT] | 241 | 
CCOC(=O)N(C)CC[C@@]12CCCC[C@@H]1C=Cc1ccc(OC)cc12 [[2-((4aS,10aR)-6-Methoxy-1,3,4,10a-tetrahydro-2H-phenanthren-4a-yl)-ethyl]-methyl-carbamic acid ethyl ester] | > 3300 | 
CN(CC[C@]12CCCC[C@H]1C=Cc1ccc(OCC(=O)OC(C)(C)C)cc12)CC(=O)OC(C)(C)C [{(4bR,8aS)-4b-[2-(tert-Butoxycarbonylmethyl-methyl-amino)-ethyl]-4b,5,6,7,8,8a-hexahydro-phenanthren-3-yloxy}-acetic acid tert-butyl ester] | 115 | 
